# Legend:
# dopaminergic neurons [1] = assay: Morphology of dopaminergic TH+ neurons in primary mesencephalic culture; type: cell-based, mouse; conditions: 5 mM GA, FIG. 14
# Description: Effect of GA treatment on the morphology of dopaminergic neurons. Fluorescent microscopy images on the left show to TH+ neurons in a primary mesencephalic cell culture with (GA) and without (Control) treatment. […] FIG. 16:
# (§1) Primary mesencephalic neuronal cell cultures were prepared as previously described. Briefly, E14.5 embryos were obtained from C57JBL6 pregnant mice after cervical dislocation. Brain mesencephali were dissected under the microscope and digested with Trypsin-EDTA 0.12% (Life Technologies, USA) for 7 min. The trypsin reaction was then stopped by adding basic medium (BM), containing Neurobasal A medium (Gibco, USA), 1 mg/mL Pen/Strep, 10% FCS, and […] L-Glutamine, and cells were mechanically dissociated using a fire-polished Pasteur pipette. Medium was fully replaced after 5 min, centrifugation at 1200 rpm, aspiring the supernatant and adding 8 mL of fresh BM to the pellet. Concentration of cells in the medium was estimated using a Neubauer chamber and a 100 μL of medium containing 10^6 cells/mL plated per well in a 96-well plate (Greiner Sensoplate, Germany, EU). […]
# […] The effect of GA and DL on dopaminergic neurons was assessed through semi-automatic quantification of neurite length and width of TH+ neurons after treatment. […] Dopaminergic TH^+ neurons were observed using an inverted fluorescence microscope (Olympus) under a 20× objective.
# [2] = test system: HeLa cells treated with siRNA against PARK-7/DJ-1; assay: Calcium imaging on HeLa cells during mitosis after PARK-7/DJ-1 down-regulation; type: cell-based; conditions: PARK-7/DJ-1 down-regulated HeLa cells, 5 mM, FIG. 17
# Description: HeLa cells were loaded with Fluo-4 AM, a dye used to measure calcium concentration in living cells, as described by the manufacturer and recorded for 4 hours. Graphics show the variations in intracellular calcium concentration during mitosis in WT and cells treated with siRNA against PARK-7/DJ-1 to down-regulate this gene.
# HeLa-Kyoto cells stably expressing histone H2B-mCherry and mouse DJ-1 were used. Cells were maintained in DMEM supplemented with 10% fetal bovine serum (FBS), 2 mM GlutaMAX, 100 unit/ml penicillin, 100 μg/ml streptomycin. For esiRNA treatment, cells were plated at a density of 15.000 cells/well in an ibidi 8 well chamber (Cat. no 80826, ibidi, Germany, EU), transfected with different esiRNAs (RLUC as empty vector, hPARK-7 and hKIF11 as positive control) (all esiRNAs were obtained from Eupheria, Germany, EU), and left for 72 hours before performing calcium imaging. esiRNA transfection was performed as follows. esiRNA was diluted in distilled water to a concentration of 20 ng/μl. For each well, two solutions were made: 1. […]
# We observed that the Fluo-4 AM dye started to leak out of the cells into the medium after 1.5 hours of imaging. […] Images were analyzed using FIJI Image Analysis Freeware (https://fiji.sc). MFI of the Fluo-4 AM signal within the cell was determined using manually selected ROIs covering the whole cell area for each time-point. […]
# [3] = human, in vivo, 15 weeks
# Text: Potential side effects were closely monitored.
# dopaminergic neurons [4] = assay: Survival of dopaminergic neurons with paraquat 25 μM challenge (Example 1, FIG. 1); type: cell-based, mouse
# Description: Dopaminergic neurons were isolated and plated at a concentration of 1.000.000 cells/ml (100 μl/well) in a 96 well plate and cultured in medium with one or more of the various factors indicated, as described in the examples below. The survival of dopaminergic neurons in the presence and absence of various agents of the invention, either with or without paraquat challenge, is shown by the number of TH positive neurons normalized to the control treatment.
# Dopaminergic neurons were isolated and plated at a concentration of 1.000.000 cells/ml (100 μl/well) in a 96 well plate. After 3-4 hours incubation at 37° C., 20 μl of medium was removed from each well. (VF=80 μl). Changes in medium and start point of the treatment were done in the following day in vitro (DIV). The following protocol was employed in order to assess the survival of dopaminergic neurons in the presence and absence of various agents of the invention combination, either with or without paraquat challenge. • DIV.1: Change half of medium N2 (40 μl) with fresh medium N2. • DIV.3: Change half of the medium and start with medium (control) or with medium A containing LA (different concentrations) and/or GA (normally 5 mM or 10 mM). Medium A is N2 medium but without FBS and N2-Supplement. • DIV.5: Second round of control or treatment with LA and/or GA. Half of the medium (40 μl) was replaced by fresh medium A with the different agents. • DIV.7: Paraquat 25 μM treatment starts with or without GA and L-alanine. Half of the medium (40 μl) was replaced by fresh medium A with the different treatment combinations or without (control). • DIV.9: Second day of treatment with Paraquat (PQ) 25 μM in addition to the other substances (LA and GA). • DIV.10: Fixation 2% of PFA during 20 min at 37° C. or overnight at 4° C.
# as §1, with “EU). Then a 20 μL of medium was removed from the well and 24 h later, ⅓ of the media was replaced with fresh BM.” for “EU).”
smiles,measurement,setting,value
"O=C(O)CO [GA, 2-hydroxyethanoic acid]","morphology of dopaminergic neurons (neurite and axon length, secondary ramifications)",dopaminergic neurons [1],increases the length of the neurites and the main axon and the number of secondary ramifications
same,calcium influx during mitosis,[2],able to rescue this phenotype
same,GA dose at which reactive instant feces deposition was observed,[3],above 120 mg/kg
same,GA dose leading to reactive instant feces deposition,[3],higher than 150 mg/kg
same,survival of dopaminergic neurons (rescue),dopaminergic neurons [4]; 5 mM GA with PQ 25 μM,rescue over PQ treatment alone
same,survival of dopaminergic neurons (rescue),dopaminergic neurons [4]; 10 mM GA with PQ 25 μM,rescued completely

# — patent US20230277491A1, “PHARMACEUTICAL COMBINATION COMPRISING GLYCOLIC ACID AND L-ALANINE” (priority 2020, published 2023)
